Measured values reported in patent publication US20190209572A1, “BIFUNCTIONAL ANTIFUNGAL AGENTS AND METHODS OF TREATING FUNGAL INFECTION” (YALE UNIVERSITY, priority 2016, published 2019).

How the values were obtained:
[1] = test system: caspofungin-treated C. albicans cells; experiment: Flow cytometry antibody-recruiting assay on C. albicans grown with caspofungin; assay type: cell-based, Candida albicans
Procedure: The synergistic experiments with Caspofungin were performed as described above, Save that yeast cell cultures were grown in Sabouraud dextrose broth supplemented with a fixed concentration of Caspofungin acetate from DMSO stock solutions.
Cultures of C. albicans Ca2323 were grown in Sabourad dextrose broth (Hardy Diagnostics, CA) to maintain them in a non-sporulating yeast form (blastopore form). S. cerevisiae YPH499 (Mat type a) were grown in YPD brath (Teknova, CA). Chitin-deficient strain S. cerevisiae YMS348s Δchs 1,2,3 was grown in YPD broth supplemented with 1M sorbitol. The fungal cultures were generally grown overnight at 30° C. for the antibody recruitment and phagocytosis assays. For consistency, O.D. measurements were taken using a single cuvette UltraSpec 10 cell density meter and experiments were performed on cultures with similar density. For experiments involving caspofungin treated C. albicans, the cells were grown overnight in media containing 1.25 ng/ml caspofungin acetate (Merck, PA). For experiments involving α factor induced arrest, α factor pheromone trifluoroacetate salt (Bachem, Switzerland) was added to a fresh S. cerevisiae YPH499 culture to a final concentration of 5 μg/mL followed by incubation for 1 h. Then, the cells were treated repeatedly with α factor pheromone trifluoroacetate salt (5 μg/mL) and incubated for an additional 2 h.
Fungal cells for the antibody recruitment experiments were always grown to 1.0 O.D. for consistency across experiments. The fungal cells were pelleted, washed, counted on the flow cytometer and re-constituted in FACS buffer of PBS containing 5% BSA at a density of 1×10^5 cells/mL. One microliter of suitably diluted ARM compound followed by 1 μL of 1:100 diluted anti-DNP biotinylated mouse monoclonal antibody (2 mg/mL, Invitrogen, CA) was added to 100 μL of fungal cells in FACS buffer. The reaction was mixed well and incubated in a 37° C. incubator for 30 minutes. Post incubation, washing was performed by adding 1 mL of FACS buffer to the reaction and the cells pelleted by centrifugation at 10000x g for 5 minutes. The pelleted cells were then reconstituted in 100 μl of FACS buffer followed by addition of 1 μL of 1:1000 diluted AF647 labeled streptavidin (0.5 mg/mL, BioLegend, CA) and 1 μL of 100 μg/ml propidium iodide (PromoKine, Germany). […] All experiments consisted of two sets of controls: (i) flow controls: unstained cells, propidium iodide stained cells, secondary reagent stained cells; (ii) background controls: compound 9 lacking DNP motifs, and no ARM-F. The cells were analyzed by flow cytometry on an Attune Nxt flow cytometer (Thermo Fischer Scientific) and the raw data further analyzed using FlowJo software (FlowJo LLC, OR).

[2] = test system: Candida albicans; experiment: Flow cytometry antibody-recruiting assay (anti-DNP antibodies) on C. albicans; assay type: cell-based
Procedure: Candida albicans cultures were maintained on Sabouraud dextrose agar (SDA) and yeast cell cultures were grown at 30° C. in Sabouraud dextrose broth with shaking at 225 rpm overnight (OD 1.1-1.3). For the assays, 10^5 cells were taken into 50 μL assay medium (5% BSA in PBS 1x) and treated with a fixed concentration of the indicated ARM-F compound from 100x DMSO stocks followed by imminent addition of 50 μL 500x stock solution of anti-DNP-biotine-xx conjugate antibodies in assay medium. Cells were allowed to incubate for 30 min at r.t., then washed twice with 500 μL assay medium followed by addition of 50 μL 500x stock solution of streptavidin-AlexaFluor 647 conjugate and propidium iodide. […] The cells were allowed to incubate for another 30 min, washed with 500 μL assay medium and antibody recruiting to the cell surface was evaluated via flow cytometry by measuring increasing cell counts in the FL-4 channel negative for FL-3.
A flow-cytometry based assay was developed to assess the antibody recruitment ability of candidate ARM-Fs to isolates of C. albicans. We chose this organism for our studies because it is both a known human pathogen, and readily tractable for experimental manipulations.^[13] Ternary complexes formed from ARM-F, fungal cells and anti-DNP antibodies were detected using an anti-DNP secondary antibody conjugated to Alexa Fluor 647 fluorophore. […]

[3] = test system: C. albicans; experiment: Dual color flow cytometry-based fungal opsono-phagocytosis assay; assay type: cell-based, Candida albicans
Excerpt: In the physiological state, neutrophils mediate immune clearance of antibody-opsonized fungal cells.^[18], [19] To mimic this mechanism, we developed a functional assay to analyse ARM-F mediated opsonophagocytosis of fungal cells. The assay is based on two color flow cytometry and operates on the principle of differentiating phagocytosed fungal cells (intracellular) from non-phagocytosed cells (extracellular).^[20] […]
The pro-myeloblast cell line HL-60 was obtained from AtCC and cultured in high serum DMEM-F12 growth medium containing 15% FBS, 1 mM sodium pyruvate, 2 mM L-glutamine, 1X non-essential amino acids with antibiotics penicillin (10 U/mL) and streptomycin (10 μg/mL). […] The cells were counted every 24-48 hours on a Roche Innovatis Cedex XS automated cell counter and generally maintained at a density of 1×10^5 cells/mL. […]
Fungal cells for these experiments were always grown to 1.0 OD and the HL-60 cells to approximately 1×10^5 cells/mL for consistency between experiments. The fungal cells were counted by flow cytometry, pelleted and reconstituted in a fixing solution of ice-cold 70% ethanol and incubated for 1 h. […] After the final wash, the fungal cells were counted again on the flow cytometer and re-constituted in FACS buffer of PBS containing 5% BSA at a density of 2×10^6 cells/mL. […]

[4] = ELISA assay for antibody recruitment on immobilized chitin; assay type: binding; conditions: FIG. 9A
Procedure: Free chitin (0.100 g, Alfa Aesar, United Kingdom) was hydrolyzed by adding 10 ml of conc. HCl for 30 min with gentle stirring. An aliquot of the chilin solution(1 mL) was mixed with 9 ml of PBS to the final concentration of 1 mg/mL. This solution was further diluted to 100 μg/mL with PBS and coated overnight at 4° C. in a 96-well Nunc MaxiSorp microtiter plate. Upon completion, the coated plate was blocked with 2% BSA solution at 37° C. for 3 h. Next, compounds and controls at predetermined dilutions made in the 2% BSA blocking solution were added followed by addition of 2 mg/ml anti-DNP biotinylated antibodies diluted 1:100 (Invitrogen, CA). The plate was covered and incubated at 37° C. for 1 h. The plate was washed 3 times with wash solution (0.2% Tween 20 in PBS) and HRP-labeled streptavidin secondary reagent was added at a dilution 1:10000 in 2% BSA. The plate was incubated again at 37° C. for 1 h followed by washing 3 times with wash solution. HRP substrate TMB Ultra solution (Thermo Fischer, IL) was added to the plates and incubated until suitable color development and the reaction was stopped by adding 100 μL of aq. 1N H2SO4. Quantification was performed by measuring absorbance on a plate reader at 450 nm.

Compound | viability of C. albicans at caspofungin concentrations higher than 1.25 ng/ml ([1]; FIG. 9C) | viability of fungal cells during antibody recruitment ([2]; dose-dependent recruitment, FIG. 8B) | C. albicans cells exhibiting AF647 fluorescence ([2]; no caspofungin, FIG. 8A) | fungal cells that recruited antibodies and were alive ([1]; 1 μM of 8, 1.25 ng/ml caspofungin, FIG. 9C) [%] | dose eliciting antibody recruitment comparable to the maximum possible in the non-caspofungin model ([1]; caspofungin treated C. albicans, FIG. 9D) [nM] | concentration eliciting maximum response in caspofungin treated cells ([1]; dose ranging, caspofungin treated C. albicans, FIG. 9D) [µM] | concentration of maximal phagocytosis response ([3]; bell-shaped curve, FIG. 10C) [µM] | phagocytosis of C. albicans cells (in words) ([3]; human neutrophils, anti-DNP antibodies, compared to untreated cells) | binding to chitin (in words) [4]
CC[C@H](C)C[C@H](C)CCCCCCCCC(=O)N[C@H]1C[C@@H](O)[C@@H](NCCN)NC(=O)[C@@H]2[C@@H](O)CCN2C(=O)[C@H]([C@H](O)CCN)NC(=O)[C@H]([C@H](O)[C@@H](O)c2ccc(O)cc2)NC(=O)[C@@H]2C[C@@H](O)CN2C(=O)[C@H]([C@@H](C)O)NC1=O [Caspofungin, reference compound] | reduced viability |  |  |  |  |  |  |  | 
O=C(NCCOCCOCCOCCOCCOCCOCCOCCOCCOCCNc1ccc([N+](=O)[O-])cc1[N+](=O)[O-])c1ccc(Nc2nc(Nc3ccc(/C=C/c4ccc(Nc5nc(Nc6ccc(C(=O)NCCOCCOCCOCCOCCOCCOCCOCCOCCOCCNc7ccc([N+](=O)[O-])cc7[N+](=O)[O-])cc6)nc(N(CCO)CCO)n5)cc4S(=O)(=O)O)c(S(=O)(=O)O)c3)nc(N(CCO)CCO)n2)cc1 [compound 8] |  | no loss of viability | 35-45% | 90 | 10 | 1 | 10 | drastic increase in number of phagocytosed fungal cells | binds to fungal chitin in a dose-dependent manner
